Assay results: US20220127258A1, “AROMATIC RING OR HETEROAROMATIC RING COMPOUNDS, PREPARATION METHOD THEREFOR AND MEDICAL USE THEREOF” (The National Institutes of Pharmaceutical R&D Co., Ltd., priority 2019, published 2022)

Assays:
[1] = system: cholestasis rat induced by ANIT; experiment: Efficacy on the cholestasis rat model induced by 1-naphthyl isothiocyanate (ANIT); assay type: in vivo, SD rats; parameters: ALT / AST / GGT / TBA: unit not given here; conditions: for level of ALT, AST, GGT and TBA in the serum of ANIT rat (in words): 3 and 10 mg/kg/d, conclusion of Test Example 2; for ALT / AST / GGT / TBA: serum, 4 days, ANIT rat
Protocol: Animals: SD rats, male, 7 to 8 weeks old, weight: 220 to 240 g, purchased from Beijing Vital River Laboratory Animal Technology Co., Ltd., SPF grade, Certificate No.: SCXK (Beijing) 2016-0011, license issuing administration: Beijing Municipal Commission of Science and Technology.
Sample formulation: The compound of the present invention was added to DMSO, and dissolved completely by ultrasound. 0.5% CMC-Na was added to constant volume (DMSO: 0.5% CMC-Na=1:99), and the solution was homogenized by ultrasound for later use.
After 3 to 5 days of acclimation, the animals were divided into 20 groups according to body weight: normal group, model group, Example 8 (3 mg/kg/d, 10 mg/kg/d) group, Example 11 (3 mg/kg/d, 10 mg/kg/d) group, Example 12 (3 mg/kg/d, 10 mg/kg/d) group, Example 14 (3 mg/kg/d, 10 mg/kg/d) group, Example 20 (3 mg/kg/d, 10 mg/kg/d) group, Example 22 (3 mg/kg/d, 10 mg/kg/d) group, Example 26 (3 mg/kg/d, 10 mg/kg/d) group, Example 28 (3 mg/kg/d, 10 mg/kg/d) group, and Example 29 (3 mg/kg/d, 10 mg/kg/d) group, with 10 rats for each group. Intragastric administration was conducted with an administration volume of 10 mL/kg, once a day, for a total of 4 days. On Day 2, ANIT (1-naphthyl isothiocyanate, Macklin, purity: 98%, item number: N814658, CAS number: 551-06-4, specification: 5 g/bottle, storage conditions: 2 to 8 degrees, batch number: C10116101) with a dose of 50 mg/kg and an administration volume of 5 mL/kg was administered intragastrically once to each animal (except for animals in the normal group) 4 hours after the administration. The animals were fasted on Day 4 morning. The animals were anesthetized by isoflurane inhalation using a small animal anesthesia machine. Blood was collected from the venous plexus behind the eyeball using a capillary glass tube (about 1 ml per animal), and then left to stand for about one hour. It was centrifuged at 3500 rpm for 10 minutes to obtain the serum. ALT, AST, GGT and TBA indexes as well as the plasma concentration of the compound were determined using an AU480 automatic biochemical analysis system (BECKMAN COULTER). Liver was collected, weighed, and cutted into pieces. Normal saline was added (liver weight: normal saline=1:2), and the mixture was homogenized and freezed. The concentration of the compound in liver was determined using an ultra performance liquid chromatograph (Shimadzu, LC 30AD) and triple quadrupole mass spectrometer (AB, TQ5500).

hERG channel = molecular target: T1, hERG channel (Homo sapiens, UniProt Q12809); experiment: Effect on hERG channel, whole-cell membrane clamp; assay type: cell-based; conditions: for hERG current inhibition ratio: n=3
T1 construct: host or cells: HEK293 stably expressing hERG
Protocol: Extracellular fluid: 140 mM NaCl, 3.5 mM KCl, 1 mM MgCl2, 2 mM CaCl2, 10 mM glucose, 10 mM HEPES, 1.25 mM NaH2PO4, pH=7.4 (adjusted by NaOH).
Intracellular fluid: 20 mM KCl, 115 mM K-aspartic acid, 1 mM MgCl2, 5 mM EGTA, 10 mM HEPES, 2 mM Na2-ATP, pH=7.2 (adjusted by KOH).
The stock solution of the compound of Example 8 of the present invention (30.26 mM solution in DMSO) was successively diluted with 10 mL of extracellular fluid to obtain 0.3 μM, 1 μM, 3 μM, […], and 30 μM solutions.
The HEK293 cell line stably expressing the hERG potassium channel (supplier Creacell, catalog number A-0302) was cultured in DMEM medium containing 10% fetal bovine serum and 0.8 mg/mL G418. The culture temperature was 37° C., and the carbon dioxide concentration was 5%.
Cell passage: The old medium was removed, and the cells were washed with PBS once. 1 mL of TrypLE™ expression solution was added, and the cells were incubated at 37° C. for 0.5 minutes. When the cells detached from the bottom of the dish, 5 mL of 37° C. pre-warmed complete medium (DMEM medium containing 10% fetal bovine serum and 0.8 mg/mL G418) was added. The cell suspension was gently pipetted to separate the aggregated cells. The cell suspension was transferred to a sterile centrifuge tube, and centrifuged at 1000 rpm for 5 minutes to collect the cells. Expansion or maintenance culture, the cells were seeded in a 6 cm cell culture dish, and each cell culture dish was seeded with 2.5×10^5 cells (final volume: 5 mL). In order to maintain the electrophysiological activity of the cell, the cell density must not exceed 80%. The cells were separated by TrypLE™ expression solution, and 3×10^3 cells were placed on a cover slide and cultured in a 24-well plate (final volume: 500 μL). Membrane clamp test was carried out after 18 hours.
The voltage stimulus protocol of the whole-cell membrane clamp for recording the whole-cell hERG potassium current is as follows. When a whole-cell sealing was formed, the membrane clamp was disposed at −80 mV. The clamp voltage was depolarized from −80 mV to +30 mV for 2.5 seconds, and then quickly maintained at −50 mV for 4 seconds, which can excite the tail current of the hERG channel. −50 mV was used for leakage current detection in the test. The data was collected repeatly every 10 seconds to observe the effect of the compound on hERG tail current. The test data was collected by EPC-10 amplifier (HEKA) and stored in PatchMaster (HEKA) software.
A capillary glass tube (BF150-86-10, Sutter Instruments) was prepared into a recording electrode using a microelectrode puller (P97, Sutter Instruments). Microelectrode manipulator (MP285, Sutter Instruments) was manipulated under an inverted microscope (IX71, Olympus) to contact the recording electrode to the cell, and suction was applied under negative pressure to form a […]. After forming the […], a rapid capacitance compensation was performed, then a negative pressure was applied to break the cell membrane and create a whole-cell recording mode. A slow capacitor compensation was performed, and the membrane capacitance and series resistance were recorded without leakage compensation.
When the hERG current of the whole-cell record was stable, administration was conducted. Each concentration was tested for 5 minutes (or until the current was stable) before testing the next concentration. Multiple concentrations were tested for each test compound. The cover slide seeded with the cell was placed in a recording bath of an inverted microscope. The test compound and the compound-free extracellular fluid flowed through the recording chamber by gravity perfusion from low concentrations to high concentrations to act on the cell. Liquid exchange was performed using a vacuum pump in the record. For each cell, the current detected in the compound-free extracellular fluid was used as the control. Three cells were repeatly tested independently. All electrophysiological experiments were carried out at room temperature.

T1 sequence (Q12809 whole entry): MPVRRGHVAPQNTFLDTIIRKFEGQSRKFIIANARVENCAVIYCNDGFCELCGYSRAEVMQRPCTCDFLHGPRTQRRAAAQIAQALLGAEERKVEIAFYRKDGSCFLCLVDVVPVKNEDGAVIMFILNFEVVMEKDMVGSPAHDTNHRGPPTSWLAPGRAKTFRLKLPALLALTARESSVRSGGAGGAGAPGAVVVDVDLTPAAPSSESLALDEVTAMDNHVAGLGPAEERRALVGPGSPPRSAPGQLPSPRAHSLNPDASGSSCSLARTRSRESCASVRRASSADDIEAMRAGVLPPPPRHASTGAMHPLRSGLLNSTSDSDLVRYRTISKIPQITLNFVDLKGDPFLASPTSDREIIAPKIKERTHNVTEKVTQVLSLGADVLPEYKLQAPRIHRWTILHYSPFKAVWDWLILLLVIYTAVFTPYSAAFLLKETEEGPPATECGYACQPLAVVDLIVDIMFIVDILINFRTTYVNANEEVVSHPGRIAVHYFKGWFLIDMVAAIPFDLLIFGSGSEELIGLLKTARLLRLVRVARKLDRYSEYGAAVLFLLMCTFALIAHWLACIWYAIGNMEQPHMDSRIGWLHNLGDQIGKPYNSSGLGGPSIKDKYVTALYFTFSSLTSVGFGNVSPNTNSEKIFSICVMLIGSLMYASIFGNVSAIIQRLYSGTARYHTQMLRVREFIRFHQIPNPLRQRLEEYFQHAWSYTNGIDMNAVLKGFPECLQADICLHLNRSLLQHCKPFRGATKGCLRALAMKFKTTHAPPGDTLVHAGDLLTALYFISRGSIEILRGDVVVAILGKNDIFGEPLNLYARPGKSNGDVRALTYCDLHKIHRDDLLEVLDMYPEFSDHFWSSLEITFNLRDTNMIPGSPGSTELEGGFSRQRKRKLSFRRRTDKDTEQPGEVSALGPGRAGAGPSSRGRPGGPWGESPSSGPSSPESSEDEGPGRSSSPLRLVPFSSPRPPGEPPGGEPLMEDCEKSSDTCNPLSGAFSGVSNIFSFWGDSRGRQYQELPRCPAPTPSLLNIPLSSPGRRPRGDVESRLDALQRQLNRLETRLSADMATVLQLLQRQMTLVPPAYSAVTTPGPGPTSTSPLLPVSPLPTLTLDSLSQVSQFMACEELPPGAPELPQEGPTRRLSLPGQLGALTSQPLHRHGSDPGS

| Structure (SMILES) | level of ALT, AST, GGT and TBA in the serum of ANIT rat (in words) [1] | ALT ([1]; 3 mg/kg/d intragastric) | AST ([1]; 3 mg/kg/d intragastric) | GGT ([1]; 3 mg/kg/d intragastric) | TBA ([1]; 3 mg/kg/d intragastric) | ALT ([1]; 10 mg/kg/d intragastric) | AST ([1]; 10 mg/kg/d intragastric) | GGT ([1]; 10 mg/kg/d intragastric) | TBA ([1]; 10 mg/kg/d intragastric) | hERG current inhibition ratio (hERG channel; 0.3 μM, HEK293 cell line stably expressing hERG) [%] | hERG current inhibition ratio (hERG channel; 1 μM, HEK293 cell line stably expressing hERG) [%] | hERG current inhibition ratio (hERG channel; 3 μM, HEK293 cell line stably expressing hERG) [%] | hERG current inhibition ratio (hERG channel; 10 μM, HEK293 cell line stably expressing hERG) [%] | hERG current inhibition ratio (hERG channel; 30 μM, HEK293 cell line stably expressing hERG) [%] | IC50 (hERG channel; HEK293 cell line stably expressing hERG, whole-cell membrane clamp, read-out: hERG semi-inhibiting concentration (IC50)) [µM] | inhibitory effect on hERG channel (in words) (hERG channel; conclusion of Test Example 3) |
| --- | --- | --- | --- | --- | --- | --- | --- | --- | --- | --- | --- | --- | --- | --- | --- | --- |
| O=C(O)c1ccc(-c2nnc(N3[C@@H]4CC[C@H]3C[C@@H](OCc3c(-c5ccccc5OC(F)(F)F)noc3C3CC3)C4)o2)cc1 [Example 22, 4-(5-((1R,3r,5S)-3-((5-cyclopropyl-3-(2-(trifluoromethoxy)phenyl)isoxazol-4-yl)methoxy)-8-azabicyclo[3.2.1]octan-8-yl)-1,3,4-oxadiazol-2-yl)benzoic acid] | significantly reduce | 100.8 ± 90.9 | 324.8 ± 313.1 | 2.7 ± 1.7 | 73.3 ± 103.2 | 44.5 ± 8.1 | 163.3 ± 21.3 | 1.8 ± 0.5 | 27.4 ± 13.6 |  |  |  |  |  |  |  |
| Cc1cc(C(=O)O)ccc1-c1nnc(N2[C@@H]3CC[C@H]2C[C@@H](OCc2c(-c4c(Cl)cccc4Cl)noc2C2CC2)C3)o1 [Example 14] | significantly reduce | 220.3 ± 104.0 | 643.3 ± 239.3 | 4.6 ± 1.3 | 235.8 ± 80.1 | 45.5 ± 11.9 | 181.4 ± 20.8 | 1.7 ± 0.4 | 20.3 ± 12.3 |  |  |  |  |  |  |  |
| O=C(O)c1ccc(-c2nnc(N3[C@@H]4CC[C@H]3C[C@@H](OCc3c(-c5c(Cl)cccc5Cl)noc3C3CC3)C4)o2)cc1 [Example 8, 4-(5-((1R,3r,5S)-3-((5-cyclopropyl-3-(2,6-dichlorophenyl)isoxazol-4-yl)methoxy)-8-azabicyclo[3.2.1]octan-8-yl)-1,3,4-oxadiazol-2-yl)benzoic acid] | significantly reduce | 164.8 ± 85.0 | 401.8 ± 172.8 | 2.5 ± 0.7 | 100.0 ± 99.8 | 79.9 ± 98.7 | 243.5 ± 192.6 | 2.0 ± 0.5 | 32.9 ± 68.0 | −2.37 ± 0.62 | −3.09 ± 0.30 | 0.48 ± 1.78 | 12.65 ± 2.25 | 31.67 ± 1.86 | > 30 | no inhibitory effect on hERG channel |
| O=C(O)c1ccc(-c2nnc(N3[C@@H]4CC[C@H]3C[C@@H](OCc3c(-c5c(Cl)cccc5Cl)noc3C3CC3)C4)o2)s1 [Example 11] | significantly reduce | 276.3 ± 118.0 | 761.3 ± 253.7 | 4.9 ± 0.9 | 243.4 ± 72.4 | 180.3 ± 107.8 | 466.1 ± 242.4 | 3.7 ± 1.5 | 190.3 ± 140.7 |  |  |  |  |  |  |  |
